Where two headings read alike, the source gives them in different places.
Assays:
Assay type in all cases: biochemical
opioid receptor kappa = target: T1, opioid receptor kappa (Homo sapiens, UniProt P41145); test: GTPγ[35S] binding assay, antagonism of dynorphin-A
T1 construct: expressed in transfected cells
Protocol: (§1) Membranes were prepared from cells as described (Bass et al, 1996). GTPγ[5S] binding assays were performed in a 96 well FlashPlate™ format in duplicate using […] GTPγ[^35S] and 5 μg membrane per well in assay buffer composed of 50 mM Tris HCl, pH 7.4, 5 mM MgCl2, 1 mM EDTA, 100 mM NaCl, 30 μM GDP, 0.1% bovine serum albumin and the following protease inhibitors: 100 μg/ml bacitracin, 100 μg/ml benzamidine, 5 μg/ml aprotinin, 5 μg/ml leupeptin. The assay mix was then incubated at 30° C. with increasing concentrations of antagonist (10^−10 M to 10^−5 M) for 10 minutes and challenged with the agonists BW-373U86 (1 nM), dynorphin-A (10 nM), […] (1 μM) for opioid receptors delta, kappa, and mu, respectively. The assays were performed at 30° C. for one hour. The FlashPlates were then centrifuged at 2000×g for 10 minutes. Stimulation of GTPγ[^35S] binding was then quantified using a Wallac Microbeta and Ki calculations were done using Prism™ by Graphpad.

opioid receptor mu = target: T2, opioid receptor mu (Homo sapiens, UniProt P35372); test: GTPγ[35S] binding assay, antagonism of endorphin
T2 construct: expressed in transfected cells
Protocol: as §1

opioid receptor delta = target: T3, opioid receptor delta (Homo sapiens, UniProt P41143); test: GTPγ[35S] binding assay, antagonism of BW-373U86
T3 construct: expressed in transfected cells
Protocol: as §1

[1] = read-out: Kappa functional (GTPγ[35S] binding Ki)
[2] = read-out: Mu functional (GTPγ[35S] binding Ki)
[3] = read-out: Delta functional (GTPγ[35S] binding Ki)
[4] = read-out: Kappa functional Ki (GTPγ[35S] binding)
[5] = read-out: Mu functional Ki (GTPγ[35S] binding)
[6] = read-out: Delta functional Ki (GTPγ[35S] binding)
[7] = average Ki, antagonism of dynorphin-A (10 nM) at kappa opioid receptor membranes, read-out: Kappa functional Ki (GTPγ[35S] binding)
[8] = average Ki, antagonism of endorphin (1 μM) at mu opioid receptor membranes, read-out: Mu functional Ki (GTPγ[35S] binding)
[9] = average Ki, antagonism of BW-373U86 (1 nM) at delta opioid receptor membranes, read-out: Delta functional Ki (GTPγ[35S] binding)

T1 sequence (P41145 whole entry): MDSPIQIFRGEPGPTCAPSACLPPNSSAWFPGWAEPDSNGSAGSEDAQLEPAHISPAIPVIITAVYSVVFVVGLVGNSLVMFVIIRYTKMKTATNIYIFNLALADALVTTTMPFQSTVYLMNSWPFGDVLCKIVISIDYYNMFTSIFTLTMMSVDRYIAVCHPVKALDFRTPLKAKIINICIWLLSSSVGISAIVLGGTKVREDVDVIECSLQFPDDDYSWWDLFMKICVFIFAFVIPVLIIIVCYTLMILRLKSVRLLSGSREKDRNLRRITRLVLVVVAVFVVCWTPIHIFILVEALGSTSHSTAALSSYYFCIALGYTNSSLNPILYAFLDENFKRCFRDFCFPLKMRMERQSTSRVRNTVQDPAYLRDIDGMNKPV
T3 sequence (P41143 whole entry): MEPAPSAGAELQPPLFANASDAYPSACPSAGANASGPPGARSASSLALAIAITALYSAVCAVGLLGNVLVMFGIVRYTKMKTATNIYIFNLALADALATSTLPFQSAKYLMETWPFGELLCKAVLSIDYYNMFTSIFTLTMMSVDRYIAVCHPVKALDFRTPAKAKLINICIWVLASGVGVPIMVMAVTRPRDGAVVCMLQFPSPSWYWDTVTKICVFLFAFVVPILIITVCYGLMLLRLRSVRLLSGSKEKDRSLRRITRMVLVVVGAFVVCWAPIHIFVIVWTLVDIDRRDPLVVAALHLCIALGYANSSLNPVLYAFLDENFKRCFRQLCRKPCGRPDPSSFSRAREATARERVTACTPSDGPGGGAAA
T2 sequence (P35372 whole entry): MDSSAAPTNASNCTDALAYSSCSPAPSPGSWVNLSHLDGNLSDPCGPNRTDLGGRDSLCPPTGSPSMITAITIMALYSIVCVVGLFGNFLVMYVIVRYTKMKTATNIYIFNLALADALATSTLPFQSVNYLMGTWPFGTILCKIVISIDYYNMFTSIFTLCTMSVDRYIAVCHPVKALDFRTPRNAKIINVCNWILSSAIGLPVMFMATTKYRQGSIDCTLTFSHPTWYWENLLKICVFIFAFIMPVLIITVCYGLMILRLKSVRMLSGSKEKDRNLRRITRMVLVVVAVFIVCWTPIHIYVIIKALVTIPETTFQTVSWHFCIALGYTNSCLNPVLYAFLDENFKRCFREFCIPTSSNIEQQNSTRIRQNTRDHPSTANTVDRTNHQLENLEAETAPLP

SMILES	Ki (opioid receptor kappa; [1]) [nM]	Ki (opioid receptor mu; [2]) [nM]	Ki (opioid receptor delta; [3]) [nM]	Ki (opioid receptor kappa; [4]) [nM]	Ki (opioid receptor mu; [5]) [nM]	Ki (opioid receptor delta; [6]) [nM]	other results
Cc1cc(C(N)=O)ccc1-c1ccc(CNCCOc2ccccc2)cc1 [4B-16]	7.65	2.82	0.751				
Cc1cc(C(N)=O)ccc1-c1ccc(CNCc2cccc(F)c2)cc1 [4B-17]	1.21	2.56	1.13				
Cc1cc(C(N)=O)ccc1-c1ccc(CNCc2ccc3c(c2)CC(C)(C)O3)cc1 [4B-18]	18.7	5.72	2.46				
Cc1cc(C(N)=O)ccc1-c1ccc(CNC(C)(C)c2ccccc2)cc1 [4B-19]	23.4	126	19.5				
Cc1cc(C(N)=O)ccc1-c1ccc(CNCc2ccc3c(c2)CCO3)cc1 [4B-20]	34.5	7.1	4.21				
Cc1cc(C(N)=O)ccc1-c1ccc(CNC2CCOc3c(C)cccc32)cc1 (stereo not drawn) [4B-22]	4.92	7.56	5.1				
Cc1cc(C(N)=O)ccc1-c1ccc(CNC2(c3cccc(Cl)c3)CC2)cc1 [4B-23]	14.2	266	46.3				
Cc1cc(C(N)=O)ccc1-c1ccc(CNC2(c3ccccc3)CC2)cc1 [4B-24]	400	1290	22.7				
Cc1cc(C(N)=O)ccc1-c1ccc(CNC(C)(C)c2cccc(Cl)c2)cc1 [4B-25]	6.11	37.6	22.6				
Cc1cc(C(N)=O)ccc1-c1ccc(CNC(C)c2ccc3ccccc3c2)cc1 (stereo not drawn) [4B-27]	2.86	14.3	2.98				
CC(C)CCNCc1ccc(-c2ccc(C(N)=O)cc2Cl)cc1 [4B-29]	6.1	16.2	6.12				
NC(=O)c1ccc(-c2ccc(CNCCC3CCOCC3)cc2)c(Cl)c1 [4B-37]				4.61	13.7	60.3	
NC(=O)c1ccc(-c2ccc(CNCCC3CCCC3)cc2)c(Cl)c1 [4B-39]				1.28	1.87	0.612	
Cc1cc(C(N)=O)ccc1-c1ccc(CNCC2CCOCC2)cc1 [4B-40]				9.05	48.3	20.4	
Cc1cc(C(N)=O)ccc1-c1ccc(CN[C@H](C)c2ccccc2)cc1 [4B-41]				13.5	61.4	14.1	
Cc1cc(C(N)=O)ccc1-c1ccc(CN[C@@H](C)c2ccccc2)cc1 [4B-42]				6.19	65.4	22.2	
Cc1cc(C(N)=O)ccc1-c1ccc(CNCc2cccnc2)cc1 [4B-43]				8.95	70.2	10.6	
Cc1cc(C(N)=O)ccc1-c1ccc(CNCc2ccccn2)cc1 [4B-44]				25.7	61.7	26.1	
CC(C)CCNCc1ccc(-c2ccc(C(N)=O)cc2OCc2ccccc2)cc1 [4B-45]				9.84	40.2	44.6	
CC(C)CCNCc1ccc(-c2ccc(C(N)=O)cc2O)cc1 [4B-47]				80.6	549	543	

SMILES	Ki (opioid receptor kappa; [1]) [nM]	Ki (opioid receptor mu; [2]) [nM]	Ki (opioid receptor delta; [3]) [nM]	Ki (opioid receptor kappa; [4]) [nM]	Ki (opioid receptor mu; [5]) [nM]	Ki (opioid receptor delta; [6]) [nM]	other results
CCc1cc(C(N)=O)ccc1-c1ccc(CNCCC(C)C)cc1 [4B-48]				13.9	12	16.1	
Cc1cc(C(N)=O)cc(Cl)c1-c1ccc(CNCCC(C)C)cc1 [4B-49]				2.31	2.72	6.66	
Cc1cc(C(N)=O)ccc1-c1cc(F)c(CNCCC2CCOCC2)c(F)c1 [4B-50]							Ki (opioid receptor kappa; [7]): 0.948 nM; Ki (opioid receptor mu; [8]): 1.45 nM; Ki (opioid receptor delta; [9]): 0.135 nM
Cc1cc(C(N)=O)ccc1-c1cc(F)c(CNCCC2CCOCC2)c(F)c1 [4B-51]				1.95	2.16	0.707	
CC[C@@H](NCc1c(F)cc(-c2ccc(C(N)=O)cc2C)cc1F)c1ccccn1 [4B-52]				7.01	138	15.4	
Cc1cc(C(N)=O)ccc1-c1cc(F)c(CN[C@H](C)c2ccccn2)c(F)c1 [4B-53]				43.1	92.7	3.74	
Cc1cc(C(N)=O)ccc1-c1cc(F)c(CNC2CCCC2)c(F)c1 [4B-54]				15.4	37	14.5	
Cc1cc(C(N)=O)ccc1-c1cc(F)c(CNC[C@@H]2CCCO2)c(F)c1 [4B-55]				8.55	30.7	19	
NC(=O)c1ccc(-c2cc(F)c(CNCCC3CCOCC3)c(F)c2)c(Cl)c1 [4B-57]				4.58	12.7	168	
Cc1cc(C(N)=O)ccc1-c1cc(F)c(CNCC2CCOCC2)c(F)c1 [4B-59]				9.47	33.3	19.1	
CC(C)CCNCc1ccc(-c2ccc(C(N)=O)cc2Cl)c(F)c1 [4B-61]				4.92	25.6	12.6	
Cc1cc(CNCCC(C)C)ccc1-c1ccc(C(N)=O)cc1Cl [4B-62]				2.56	6.4	3.58	
CC(C)CCNCc1ccc(-c2ccc(C(N)=O)cc2Cl)c(Cl)c1 [4B-66]				2.52	7.83	7.52	
NC(=O)c1ccc(-c2ccc(CNCCC3CCOCC3)cc2Cl)c(Cl)c1 [4B-67]				3.62	7.22	2.95	
NC(=O)c1ccc(-c2ccc(CNC3Cc4ccccc4C3)cc2Cl)c(Cl)c1 [4B-68]							Ki (opioid receptor kappa; [7]): 0.759 nM; Ki (opioid receptor mu; [8]): 0.24 nM; Ki (opioid receptor delta; [9]): 0.724 nM
NC(=O)c1ccc(-c2ccc(CNCCC3CCCCO3)cc2Cl)c(Cl)c1 (stereo not drawn) [4B-69]				4.54	2.78	4.09	
Cc1cc(CNCCC2CCOCC2)ccc1-c1ccc(C(N)=O)cc1C [4B-70]				2.48	2	1.04	
Cc1cc(CNCC2CCOCC2)ccc1-c1ccc(C(N)=O)cc1C [4B-71]				6.91	8.37	6.2	
Cc1cc(CNCC2CCCO2)ccc1-c1ccc(C(N)=O)cc1C (stereo not drawn) [4B-72]				5.44	9.83	13	
Cc1cc(C(N)=O)ccc1-c1cc(F)c(CNCCC(C)C)cc1F [4B-74]				4.45	4.37	4.8	

More lines, main results first:

Ki (opioid receptor kappa; [1]) [nM]	Ki (opioid receptor mu; [2]) [nM]	Ki (opioid receptor delta; [3]) [nM]	Ki (opioid receptor kappa; [4]) [nM]	Ki (opioid receptor mu; [5]) [nM]	Ki (opioid receptor delta; [6]) [nM]	SMILES	other results
0.872	1.5	1.25				Cc1cc(C(N)=O)ccc1-c1ccc(CNC2CCc3ccccc32)cc1 (stereo not drawn) [4B-21]	
3.32	4.55	5.72				Cc1cc(C(N)=O)ccc1-c1ccc(CNCc2ccccc2F)cc1 [4B-26]	
4.12	26.1	26.3				Cc1cc(C(N)=O)ccc1-c1ccc(CN[C@@H]2CCCc3ccccc32)cc1 [4B-28]	
0.842	0.41	0.378				NC(=O)c1ccc(-c2ccc(CNC3Cc4ccccc4C3)cc2)c(Cl)c1 [4B-30]	
3.71	4.05	1.09				Cc1cc(C(N)=O)ccc1-c1ccc(CNCC2Cc3ccccc3O2)cc1 (stereo not drawn) [4B-31]	
0.14	0.0492	0.0696				Cc1cc(C(N)=O)cc(C)c1-c1ccc(CNC2Cc3ccccc3C2)cc1 [4B-32]	
0.911	4.95	2.49				Cc1cc(C(N)=O)ccc1-c1ccc(CN[C@@H]2CCc3ccccc32)cc1 [4B-33]	
			0.512	1.08	1.09	Cc1cc(C(N)=O)ccc1-c1ccc(CN[C@H]2CCc3ccccc32)cc1 [4B-34]	
			7.13	1.32	0.687	Cc1cc(C(N)=O)ccc1-c1ccc(CNCC2Cc3ccccc3C2)cc1 [4B-35]	
			6.5	1.45	0.453	Cc1cc(C(N)=O)ccc1-c1ccc(CNCC2CCc3ccccc3O2)cc1 (stereo not drawn) [4B-36]	
			1.14	3.33	5.59	NC(=O)c1ccc(-c2ccc(CN[C@H]3CCc4ccccc43)cc2)c(Cl)c1 [4B-38]	
			9.04	36.8	8.44	Cc1cc(C(N)=O)ccc1-c1ccc(CNCC2CCOCC2)c(F)c1 [4B-56]	
			1.77	7.3	4.02	NC(=O)c1ccc(-c2ccc(CNCCC3CCOCC3)c(F)c2)c(Cl)c1 [4B-58]	
			1.49	3.9	1.43	Cc1cc(C(N)=O)ccc1-c1ccc(CNCCC2CCOCC2)c(F)c1 [4B-60]	
			0.633	0.226	0.629	NC(=O)c1ccc(-c2ccc(CNC3Cc4ccccc4C3)c(F)c2)c(Cl)c1 [4B-63]	
			3.97	12.1	5.64	CC(C)CCNCc1ccc(-c2ccc(C(N)=O)cc2Cl)cc1F [4B-64]	
			2.15	10.8	4.79	CC(C)CCNCc1ccc(-c2ccc(C(N)=O)cc2Cl)cc1Cl [4B-65]	
			0.318	0.0298	0.135	Cc1cc(CNC2Cc3ccccc3C2)ccc1-c1ccc(C(N)=O)cc1C [4B-73]	
